Data taken from patent US7572785B2, “Substituted imidazoles as cannabinoid receptor modulators” (Merck & Co., Inc., priority 2001, dated 2009).

melting point: 165 °C
Compound: Cn1c(C(=O)NC2CCCCC2)nc(-c2ccc(Cl)cc2Cl)c1-c1ccc(Cl)cc1
